According to ChEMBL document CHEMBL3745675, “Design and optimization of selective azaindole amide M1 positive allosteric modulators” (Bioorg Med Chem Lett, 2016):

Legend:
Plasma [1] = assay: Fraction unbound in Wistar Hann rat plasma at 5 mg/kg, sc after 1 hr; format: ADME, organism-based; conditions: in vivo
Plasma [2] = assay: Fraction unbound in Wistar Hann rat plasma at 5 mg/kg, sc after 2 hrs; format: ADME, organism-based; conditions: in vivo
Plasma [3] = assay: Fraction unbound in Wistar Hann rat plasma at 5 mg/kg, sc after 4 hrs; format: ADME, organism-based; conditions: in vivo
Plasma [4] = assay: Fraction unbound in Wistar Hann rat plasma at 5 mg/kg, sc after 6 hrs; format: ADME, organism-based; conditions: in vivo
[5] = Ratio of drug level in brain to plasma in Wistar Hann rat at 5 mg/kg, sc after 1 hr; format: ADME, organism-based
[6] = Ratio of drug level in brain to plasma in Wistar Hann rat at 5 mg/kg, sc after 2 hrs; format: ADME, organism-based
[7] = Ratio of drug level in brain to plasma in Wistar Hann rat at 5 mg/kg, sc after 4 hrs; format: ADME, organism-based
[8] = Ratio of drug level in brain to plasma in Wistar Hann rat at 5 mg/kg, sc after 6 hrs; format: ADME, organism-based
[9] = Ratio of unbound AUC in brain to plasma in Wistar Hann rat at 5 mg/kg, sc after 1 hr; format: ADME, organism-based; conditions: read-out: Ratio AUC
[10] = Ratio of unbound AUC in brain to plasma in Wistar Hann rat at 5 mg/kg, sc after 2 hrs; format: ADME, organism-based; conditions: brain and plasma, read-out: Ratio AUC
[11] = Ratio of unbound AUC in brain to plasma in Wistar Hann rat at 5 mg/kg, sc after 4 hrs; format: ADME, organism-based; conditions: brain and plasma, read-out: Ratio AUC
[12] = Ratio of unbound AUC in brain to plasma in Wistar Hann rat at 5 mg/kg, sc after 6 hrs; format: ADME, organism-based; conditions: brain and plasma, read-out: Ratio AUC
[13] = Drug concentration in Wistar Hann rat CSF at 5 mg/kg, sc after 1 hr; format: ADME, organism-based, Cerebrospinal fluid; conditions: read-out: Drug uptake
[14] = Drug concentration in Wistar Hann rat CSF at 5 mg/kg, sc after 2 hrs; format: ADME, organism-based, Cerebrospinal fluid; conditions: read-out: Drug uptake
[15] = Drug concentration in Wistar Hann rat CSF at 5 mg/kg, sc after 4 hrs; format: ADME, organism-based, Cerebrospinal fluid; conditions: read-out: Drug uptake
[16] = Drug concentration in Wistar Hann rat CSF at 5 mg/kg, sc after 6 hrs; format: ADME, organism-based, Cerebrospinal fluid; conditions: read-out: Drug uptake
[17] = Ratio of drug level in CSF to plasma in Wistar Hann rat at 5 mg/kg, sc after 1 hr; format: ADME, organism-based; conditions: CSF and plasma
[18] = Ratio of drug level in CSF to plasma in Wistar Hann rat at 5 mg/kg, sc after 2 hrs; format: ADME, organism-based; conditions: CSF and plasma
[19] = Ratio of drug level in CSF to plasma in Wistar Hann rat at 5 mg/kg, sc after 4 hrs; format: ADME, organism-based; conditions: CSF and plasma
[20] = Ratio of drug level in CSF to plasma in Wistar Hann rat at 5 mg/kg, sc after 6 hrs; format: ADME, organism-based; conditions: CSF and plasma
[21] = Ratio of unbound AUC in CSF to plasma in Wistar Hann rat at 5 mg/kg, sc after 1 hr; format: ADME, organism-based; conditions: CSF and plasma, read-out: Ratio AUC
[22] = Ratio of unbound AUC in CSF to plasma in Wistar Hann rat at 5 mg/kg, sc after 2 hrs; format: ADME, organism-based; conditions: CSF and plasma, read-out: Ratio AUC
[23] = Ratio of unbound AUC in CSF to plasma in Wistar Hann rat at 5 mg/kg, sc after 4 hrs; format: ADME, organism-based; conditions: CSF and plasma, read-out: Ratio AUC
[24] = Ratio of unbound AUC in CSF to plasma in Wistar Hann rat at 5 mg/kg, sc after 6 hrs; format: ADME, organism-based; conditions: CSF and plasma, read-out: Ratio AUC
[25] = Cmax in Wistar Hann rat plasma at 5 mg/kg, sc; format: ADME, organism-based; design: dose 5 mg/kg, route subcutaneous
[26] = Cmax in Wistar Hann rat brain at 5 mg/kg, sc; format: ADME, organism-based; design: dose 5 mg/kg, route subcutaneous
[27] = Cmax in Wistar Hann rat CSF at 5 mg/kg, sc; format: ADME, organism-based, Cerebrospinal fluid; design: dose 5 mg/kg, route subcutaneous
[28] = Tmax in Wistar Hann rat plasma at 5 mg/kg, sc; format: ADME, organism-based
[29] = Tmax in Wistar Hann rat brain at 5 mg/kg, sc; format: ADME, organism-based
[30] = Tmax in Wistar Hann rat CSF at 5 mg/kg, sc; format: ADME, organism-based, Cerebrospinal fluid
[31] = AUC (0 to tlast) in Wistar Hann rat plasma at 5 mg/kg, sc; format: ADME, organism-based
[32] = AUC (0 to tlast) in Wistar Hann rat brain at 5 mg/kg, sc; format: ADME, organism-based
[33] = AUC (0 to tlast) in Wistar Hann rat CSF at 5 mg/kg, sc; format: ADME, organism-based, Cerebrospinal fluid
[34] = AUC (0 to infinity) in Wistar Hann rat plasma at 5 mg/kg, sc; format: ADME, organism-based; design: dose 5 mg/kg, time infinity, route subcutaneous
[35] = AUC (0 to infinity) in Wistar Hann rat brain at 5 mg/kg, sc; format: ADME, organism-based; design: dose 5 mg/kg, route subcutaneous, time infinity
[36] = AUC (0 to infinity) in Wistar Hann rat CSF at 5 mg/kg, sc; format: ADME, organism-based, Cerebrospinal fluid; design: dose 5 mg/kg, time infinity, route subcutaneous

For Cn1ccc(-c2ccc(Cn3cc(C(=O)N[C@H]4CCOC[C@@H]4O)c4ncccc43)cc2)n1, the “Cp(f)” value (Plasma [1]) was 463 nM, the “Cp(f)” value (Plasma [2]) was 502 nM and the “Cp(f)” value (Plasma [3]) was 293 nM. The “Cp(f)” value (Plasma [4]) was 197.5 nM, the Kp at 1 h [5] was 0.21 and the Kp at 2 h [6] was 0.18. For the same compound, the Kp at 4 h [7] was 0.22, the Kp at 6 h [8] was 0.19 and the Kp uu at 1 h [9] was 0.15. It also gave a Kp uu at 2 h [10] of 0.13, a Kp uu at 4 h [11] of 0.16 and a Kp uu at 6 h [12] of 0.14. For the same compound, the concentration at 1 h [13] was 133 nM, the concentration at 2 h [14] was 144 nM and the concentration at 4 h [15] was 76.2 nM. For the same compound, the concentration at 6 h [16] was 54.3 nM, the Kp at 1 h [17] was 0.03 and the Kp at 2 h [18] was 0.03. It also gave a Kp at 4 h [19] of 0.02, a Kp at 6 h [20] of 0.02 and a Kp uu at 1 h [21] of 0.29. The Kp uu at 2 h [22] was 0.29, the Kp uu at 4 h [23] was 0.27 and the Kp uu at 6 h [24] was 0.27. For the same compound, the Cmax [25] was 2360 ng/mL, the Cmax [26] was 453 ng/mL and the Cmax [27] was 62.2 ng/mL. The Tmax [28] was 2 h, the Tmax [29] was 1 h and the Tmax [30] was 2 h. For the same compound, the AUC(0-t) [31] was 9400 ng·h/mL, the AUC(0-t) [32] was 1830 ng·h/mL and the AUC(0-t) [33] was 240 ng·h/mL. For the same compound, the AUC(0-inf) [34] was 13400 ng·h/mL, the AUC(0-inf) [35] was 2680 ng·h/mL and the AUC(0-inf) [36] was 380 ng·h/mL.
